Source: PubChem BioAssay (NCI)
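Exposure lasted 48 hours, with cells grown in 96-well plates and compounds tested at five concentrations. Abbreviation: GI50, concentration required for 50% inhibition of growth. TGI denotes the concentration required for complete inhibition of growth.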

What was measured:
Test in all cases: NCI-60 cell line screen, 48 h
786-0 renal = tested on: 786-0 renal
A498 renal = tested on: A498 renal
A549 NSCLC = tested on: A549 NSCLC
ACHN renal = tested on: ACHN renal
BT-549 breast = tested on: BT-549 breast
CAKI-1 renal = tested on: CAKI-1 renal
CCRF-CEM leukemia = tested on: CCRF-CEM leukemia
COLO 205 colon = tested on: COLO 205 colon
DU-145 prostate = tested on: DU-145 prostate
EKVX NSCLC = tested on: EKVX NSCLC
HCC-2998 colon = tested on: HCC-2998 colon
HCT-116 colon = tested on: HCT-116 colon
HCT-15 colon = tested on: HCT-15 colon
HL-60(TB) leukemia = tested on: HL-60(TB) leukemia
HOP-62 NSCLC = tested on: HOP-62 NSCLC
HOP-92 NSCLC = tested on: HOP-92 NSCLC
HS 578T breast = tested on: HS 578T breast
HT29 colon = tested on: HT29 colon
IGROV1 ovarian = tested on: IGROV1 ovarian
K-562 leukemia = tested on: K-562 leukemia
KM12 colon = tested on: KM12 colon
LOX IMVI melanoma = tested on: LOX IMVI melanoma
M14 melanoma = tested on: M14 melanoma
MALME-3M melanoma = tested on: MALME-3M melanoma
MCF7 breast = tested on: MCF7 breast
MDA-MB-231 breast = tested on: MDA-MB-231 breast
MDA-MB-435 = tested on: MDA-MB-435
MOLT-4 leukemia = tested on: MOLT-4 leukemia
NCI-H226 lung = tested on: NCI-H226 lung
NCI-H23 lung = tested on: NCI-H23 lung
NCI-H460 lung = tested on: NCI-H460 lung
NCI-H522 lung = tested on: NCI-H522 lung
NCI/ADR-RES ovarian = tested on: NCI/ADR-RES ovarian
OVCAR-3 ovarian = tested on: OVCAR-3 ovarian
OVCAR-5 ovarian = tested on: OVCAR-5 ovarian
OVCAR-8 ovarian = tested on: OVCAR-8 ovarian
PC-3 prostate = tested on: PC-3 prostate
RPMI-8226 leukemia = tested on: RPMI-8226 leukemia
RXF 393 renal = tested on: RXF 393 renal
SF-268 CNS = tested on: SF-268 CNS
SF-295 CNS = tested on: SF-295 CNS
SF-539 CNS = tested on: SF-539 CNS
SK-MEL-2 melanoma = tested on: SK-MEL-2 melanoma
SK-MEL-28 melanoma = tested on: SK-MEL-28 melanoma
SK-MEL-5 melanoma = tested on: SK-MEL-5 melanoma
SK-OV-3 ovarian = tested on: SK-OV-3 ovarian
SN12C renal = tested on: SN12C renal
SNB-19 CNS = tested on: SNB-19 CNS
SNB-75 CNS = tested on: SNB-75 CNS
SR leukemia = tested on: SR leukemia
SW-620 colon = tested on: SW-620 colon
T-47D breast = tested on: T-47D breast
TK-10 renal = tested on: TK-10 renal
U251 CNS = tested on: U251 CNS
UACC-257 melanoma = tested on: UACC-257 melanoma
UACC-62 melanoma = tested on: UACC-62 melanoma
UO-31 renal = tested on: UO-31 renal
OVCAR-4 ovarian = tested on: OVCAR-4 ovarian

## Cc1ncc(C(=O)Nc2ccc(CN3CCN(C)CC3)c(C(F)(F)F)c2)cc1C#Cc1cnc(N)c2ccncc12
786-0 renal
  GI50: 1350 nM
  TGI: 3300 nM
A498 renal
  GI50: 1350 nM
  TGI: 2920 nM
A549 NSCLC
  GI50: 1780 nM
  TGI: 4240 nM
ACHN renal
  GI50: 303 nM
  TGI: 1500 nM
BT-549 breast
  GI50: 2850 nM
  TGI: 8330 nM
CAKI-1 renal
  GI50: 1110 nM
  TGI: 2660 nM
CCRF-CEM leukemia
  GI50: 2730 nM
  TGI: 10800 nM
COLO 205 colon
  GI50: 687 nM
  TGI: 2040 nM
DU-145 prostate
  GI50: 1100 nM
  TGI: 3270 nM
EKVX NSCLC
  GI50: 1140 nM
  TGI: 3380 nM
HCC-2998 colon
  GI50: 1860 nM
  TGI: 3390 nM
HCT-116 colon
  GI50: 1190 nM
  TGI: 2560 nM
HCT-15 colon
  GI50: 1260 nM
  TGI: 4420 nM
HL-60(TB) leukemia
  GI50: 790 nM
  TGI: 4060 nM
HOP-62 NSCLC
  GI50: 1380 nM
  TGI: 3180 nM
HOP-92 NSCLC
  GI50: 615 nM
  TGI: 3620 nM
HS 578T breast
  GI50: 984 nM
  TGI: 4650 nM
HT29 colon
  GI50: 432 nM
  TGI: 2260 nM
IGROV1 ovarian
  GI50: 152 nM
  TGI: 1420 nM
K-562 leukemia
  TGI: 4480 nM
KM12 colon
  GI50: 441 nM
  TGI: 1820 nM
LOX IMVI melanoma
  GI50: 337 nM
  TGI: 1400 nM
M14 melanoma
  GI50: 783 nM
  TGI: 2500 nM
MALME-3M melanoma
  GI50: 361 nM
  TGI: 1590 nM
MCF7 breast
  GI50: 1350 nM
  TGI: 2900 nM
MDA-MB-231 breast
  GI50: 526 nM
  TGI: 2020 nM
MDA-MB-435
  GI50: 1430 nM
  TGI: 2860 nM
MOLT-4 leukemia
  GI50: 389 nM
  TGI: 4620 nM
NCI-H226 lung
  GI50: 527 nM
  TGI: 14300 nM
NCI-H23 lung
  GI50: 1340 nM
  TGI: 3350 nM
NCI-H460 lung
  GI50: 1380 nM
  TGI: 3020 nM
NCI-H522 lung
  GI50: 1140 nM
  TGI: 2500 nM
NCI/ADR-RES ovarian
  GI50: 1610 nM
  TGI: 5470 nM
OVCAR-3 ovarian
  GI50: 1670 nM
  TGI: 5330 nM
OVCAR-5 ovarian
  GI50: 1450 nM
  TGI: 4530 nM
OVCAR-8 ovarian
  GI50: 1690 nM
  TGI: 6550 nM
PC-3 prostate
  GI50: 2410 nM
  TGI: 6760 nM
RPMI-8226 leukemia
  GI50: 2180 nM
  TGI: 5460 nM
RXF 393 renal
  GI50: 647 nM
  TGI: 1870 nM
SF-268 CNS
  GI50: 702 nM
  TGI: 2990 nM
SF-295 CNS
  GI50: 1230 nM
  TGI: 2930 nM
SF-539 CNS
  GI50: 548 nM
  TGI: 1790 nM
SK-MEL-2 melanoma
  GI50: 1720 nM
  TGI: 3650 nM
SK-MEL-28 melanoma
  GI50: 1270 nM
  TGI: 2820 nM
SK-MEL-5 melanoma
  GI50: 1600 nM
  TGI: 2980 nM
SK-OV-3 ovarian
  GI50: 2790 nM
  TGI: 7130 nM
SN12C renal
  GI50: 616 nM
  TGI: 3770 nM
SNB-19 CNS
  GI50: 1800 nM
  TGI: 4620 nM
SNB-75 CNS
  GI50: 854 nM
  TGI: 2210 nM
SR leukemia
  GI50: 2330 nM
  TGI: 29800 nM
SW-620 colon
  GI50: 1490 nM
  TGI: 3300 nM
T-47D breast
  GI50: 1910 nM
  TGI: 5880 nM
TK-10 renal
  GI50: 1600 nM
  TGI: 4190 nM
U251 CNS
  GI50: 1550 nM
  TGI: 3350 nM
UACC-257 melanoma
  GI50: 1640 nM
  TGI: 3330 nM
UACC-62 melanoma
  GI50: 1400 nM
  TGI: 2900 nM
UO-31 renal
  GI50: 457 nM
  TGI: 2270 nM

## Nc1c(C(=O)Nc2ccncc2)sc2nc3c(cc12)CCCCCCCC3
786-0 renal
  GI50: 930 nM
  TGI: 1660 nM
A498 renal
  GI50: 871 nM
  TGI: 1580 nM
A549 NSCLC
  GI50: 1010 nM
  TGI: 2000 nM
ACHN renal
  GI50: 889 nM
  TGI: 1600 nM
BT-549 breast
  GI50: 838 nM
  TGI: 1600 nM
CAKI-1 renal
  GI50: 805 nM
  TGI: 1490 nM
CCRF-CEM leukemia
  GI50: 1300 nM
  TGI: 3260 nM
COLO 205 colon
  GI50: 997 nM
  TGI: 2180 nM
DU-145 prostate
  GI50: 944 nM
  TGI: 1720 nM
EKVX NSCLC
  GI50: 851 nM
  TGI: 1630 nM
HCC-2998 colon
  GI50: 900 nM
  TGI: 1630 nM
HCT-15 colon
  GI50: 962 nM
  TGI: 1800 nM
HL-60(TB) leukemia
  GI50: 948 nM
  TGI: 2190 nM
HOP-92 NSCLC
  GI50: 761 nM
  TGI: 1490 nM
HS 578T breast
  GI50: 1080 nM
  TGI: 2540 nM
HT29 colon
  GI50: 969 nM
  TGI: 1790 nM
IGROV1 ovarian
  GI50: 933 nM
  TGI: 1820 nM
KM12 colon
  GI50: 877 nM
  TGI: 1620 nM
LOX IMVI melanoma
  GI50: 845 nM
  TGI: 1560 nM
M14 melanoma
  GI50: 930 nM
  TGI: 1750 nM
MALME-3M melanoma
  GI50: 870 nM
  TGI: 1660 nM
MCF7 breast
  GI50: 886 nM
  TGI: 1750 nM
MDA-MB-231 breast
  GI50: 899 nM
  TGI: 1660 nM
MDA-MB-435
  GI50: 869 nM
  TGI: 1600 nM
MOLT-4 leukemia
  GI50: 1220 nM
  TGI: 2760 nM
NCI-H226 lung
  GI50: 919 nM
  TGI: 2030 nM
NCI-H23 lung
  GI50: 900 nM
  TGI: 1740 nM
NCI-H460 lung
  GI50: 995 nM
  TGI: 1830 nM
NCI/ADR-RES ovarian
  GI50: 921 nM
  TGI: 1780 nM
OVCAR-3 ovarian
  GI50: 946 nM
  TGI: 1680 nM
OVCAR-4 ovarian
  GI50: 861 nM
  TGI: 1600 nM
OVCAR-5 ovarian
  GI50: 897 nM
  TGI: 1640 nM
OVCAR-8 ovarian
  GI50: 1540 nM
  TGI: 50000 nM
PC-3 prostate
  GI50: 866 nM
  TGI: 1720 nM
RPMI-8226 leukemia
  GI50: 1230 nM
  TGI: 2710 nM
RXF 393 renal
  GI50: 938 nM
  TGI: 1700 nM
SF-268 CNS
  GI50: 954 nM
  TGI: 1740 nM
SF-295 CNS
  GI50: 907 nM
  TGI: 1690 nM
SF-539 CNS
  GI50: 878 nM
  TGI: 1600 nM
SK-MEL-2 melanoma
  GI50: 975 nM
  TGI: 1790 nM
SK-MEL-28 melanoma
  GI50: 916 nM
  TGI: 1650 nM
SK-MEL-5 melanoma
  GI50: 831 nM
  TGI: 1520 nM
SK-OV-3 ovarian
  GI50: 846 nM
  TGI: 1610 nM
SN12C renal
  GI50: 905 nM
  TGI: 1740 nM
SNB-19 CNS
  GI50: 960 nM
  TGI: 1760 nM
SNB-75 CNS
  GI50: 819 nM
  TGI: 1530 nM
SR leukemia
  GI50: 1620 nM
  TGI: 50000 nM
SW-620 colon
  GI50: 957 nM
  TGI: 1880 nM
T-47D breast
  GI50: 940 nM
  TGI: 2210 nM
TK-10 renal
  GI50: 1170 nM
  TGI: 1980 nM
U251 CNS
  GI50: 933 nM
  TGI: 1730 nM
UACC-257 melanoma
  GI50: 948 nM
  TGI: 1740 nM
UACC-62 melanoma
  GI50: 885 nM
  TGI: 1670 nM
UO-31 renal
  GI50: 772 nM
  TGI: 1490 nM
